# Molecular target: T1, humanen CGRP-Rezeptor (Homo sapiens, UniProt O60894+Q16602)
# T1 construct: endogenous in cells; host or cells: SK-N-MC cells (membrane homogenate)
# Experiment: Binding studies with SK-N-MC cell membranes, displacement of 125I-Iodotyrosyl-CGRP
# Conditions: SK-N-MC membrane homogenate, 50 pM 125I-Iodotyrosyl-CGRP, 180 min, room temperature
# Description: Zum Nachweis der Affinität der voranstehend genannten Verbindungen zu humanen CGRP-Rezeptoren und ihrer antagonistischen Eigenschaften wurden die folgenden Versuche durchgeführt: • A. Bindungsstudien mit (den humanen CGRP-Rezeptor exprimierenden) SK-N-MC-Zellen SK-N-MC-Zellen werden in "Dulbecco's modified Eagle Medium" kultiviert. Das Medium konfluenter Kulturen wird entfernt. Die Zellen werden zweimal mit PBS-Puffer (Gibco 041-04190 M) gewaschen, durch Zugabe von PBS-Puffer, versetzt mit 0.02% EDTA, abgelöst und durch Zentrifugation isoliert. Nach Resuspension in 20 ml "Balanced Salts Solution" [BSS (in mM): NaCl 120, KCl 5.4, NaHCO3 16.2, MgSO4 0.8, NaHPO4 1.0, CaCl2 1.8, D-Glucose 5.5, HEPES 30, pH 7.40] werden die Zellen zweimal bei 100 x g zentrifugiert und in BSS resuspendiert. Nach Bestimmung der Zellzahl werden die Zellen mit Hilfe eines Ultra-Turrax homogenisiert und für 10 Minuten bei 3000 x g zentrifugiert. Der Überstand wird verworfen und das Pellet in Tris-Puffer (10 mM Tris, 50 mM NaCl, 5 mM MgCl2, 1 mM EDTA, pH 7.40), angereichert mit 1% Rinderserum-Albumin und 0.1% Bacitracin, rezentrifugiert und resuspendiert (1 ml / 1000000 Zellen). Das Homogenat wird bei -80°C eingefroren. Die Membranpräparationen sind bei diesen Bedingungen für mehr als 6 Wochen stabil. Nach Auftauen wird das Homogenat 1:10 mit Assay-Puffer (50 mM Tris, 150 mM NaCl, 5 mM MgCl2, 1 mM EDTA, pH 7.40) verdünnt und 30 Sekunden lang mit einem Ultra-Turrax homogenisiert. 230 µl des Homogenats werden für 180 Minuten bei Raumtemperatur mit 50 pM ^125I-Iodotyrosyl-Calcitonin-Gene-Related Peptide (Amersham) und ansteigenden Konzentrationen der Testsubstanzen in einem Gesamtvolumen von 250 µl inkubiert. Die Inkubation wird durch rasche Filtration durch mit Polyethylenimin (0.1%) behandelte GF/B-Glasfaserfilter mittels eines Zellharvesters beendet. Die an Protein gebundene Radioaktivität wird mit Hilfe eines Gammacounters bestimmt. Als nichtspezifische Bindung wird die gebundene Radioaktivität nach Gegenwart von 1 µM humanem CGRP-alpha während der Inkubation definiert. […]
# T1 sequence (Q16602 23-461): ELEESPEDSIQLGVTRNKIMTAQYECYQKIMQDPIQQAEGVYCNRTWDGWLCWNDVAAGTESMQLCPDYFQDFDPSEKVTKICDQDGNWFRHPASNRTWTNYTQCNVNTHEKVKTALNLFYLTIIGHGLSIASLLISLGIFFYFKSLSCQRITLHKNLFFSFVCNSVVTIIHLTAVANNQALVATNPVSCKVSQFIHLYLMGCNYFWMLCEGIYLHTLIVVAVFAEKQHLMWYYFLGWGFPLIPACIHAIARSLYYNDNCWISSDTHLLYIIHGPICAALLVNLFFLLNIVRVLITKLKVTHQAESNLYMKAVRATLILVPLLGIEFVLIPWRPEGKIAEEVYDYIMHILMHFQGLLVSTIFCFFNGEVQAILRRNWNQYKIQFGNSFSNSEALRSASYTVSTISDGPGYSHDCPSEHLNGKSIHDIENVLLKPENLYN
# T1 sequence (O60894 27-148): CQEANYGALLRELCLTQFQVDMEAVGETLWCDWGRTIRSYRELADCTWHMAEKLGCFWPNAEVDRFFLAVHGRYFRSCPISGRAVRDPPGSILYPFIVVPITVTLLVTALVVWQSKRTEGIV
row,Ki [nM],Structure (SMILES)
1,81,"Cn1cc(C(=O)c2cc(N3CCC4(CC3)NC(=O)Nc3ccccc34)ncn2)c2ccccc21 [(1), 1-(6-(1-Methyl-1H-indol-3-carbonyl)pyrimidin-4-yl)-1'H-spiro[piperidin-4,4'-chinazolin]-2'(3'H)-on]"
2,89,"Cn1cc(C(=O)c2cc(Nc3ccc4c(c3)CC3(C4)C(=O)Nc4ncccc43)ncn2)c2ccccc21 (stereo not drawn) [(2), 5-(6-(1-Methyl-1H-indol-3-carbonyl)pyrimidin-4-ylamino)-1,3-dihydrospiro[inden-2,3'-pyrrolo[2,3-b]pyridin]-2'(1'H)-on]"
3,204,"Cn1cc(C(=O)c2cc(N3CCC4(CC3)OC(=O)Nc3ccccc34)ncn2)c2ccccc21 [(3), 1'-(6-(1-Methyl-1H-indol-3-carbonyl)pyrimidin-4-yl)spiro[benzo[d][1,3]oxazin-4,4'-piperidin]-2(1H)-on]"

# — patent publication EP2065386A1, “CGRP antagonists” (Boehringer Ingelheim Pharma GmbH & Co. KG, priority 2007, dated 2009)
